Data reported in US20240309014A1, “MACROCYCLIC COMPOUNDS AND USES THEREOF” (President and Fellows of Harvard College, priority 2017, published 2024).

How the values were obtained:
[1] = system: murine undifferentiated colon carcinoma cell line CT26; experiment: CT26 subcutaneous syngeneic model in combination with anti-mPD-1 antibody; format: in vivo, BALB/c mice
Experimental: A murine undifferentiated colon carcinoma cell line CT26, which had been cultured in an RPMI-1640 medium containing 10% FBS, and penicillin and streptomycin, was adjusted to a concentration of 2×10^7 cells/mL with Hank's Balanced Salt Solution to prepare a cell suspension. On day 1, the cell suspension was inoculated in a volume of 100 μL into a subcutaneous part of a right flank of BALB/c mice, 6 weeks of ages (BALB/cAnNCrlCrlj, female, Charles River Laboratories Japan, Inc.). Two days after the cell inoculation, the mice were randomly divided into four groups and each group consists of 8 mice. The shortest diameter and the longest diameter of a tumor in each mouse were measured by using an electronic digital caliper (Digimatic™ caliper, Mitutoyo Corporation), so as to calculate the volume of the tumor in accordance with the following calculation formula: […]
The test compound was intravenously administered at 0.09 mg/kg on days 3 and 11. Anti-mPD-1 antibody (BE0146, Bio X Cell) was intravenously administered at 10 mg/kg on days 3, 7, 11, and 15.

[2] = system: human bladder carcinoma cell line RT4; experiment: Bladder carcinoma cell line growth inhibition assay, RT4; format: cell-based; conditions: 72 h, 3 days incubation, CellTiter-Glo 2.0
Experimental: (§1) In this assay, the growth inhibitory activity of Compound (1) in human bladder carcinoma cell lines RT4, RT112/84, and UM-UC-3 was measured. RT4 and RT112/84 cells were maintained in a RPMI-1640 (FUJIFILM Wako Pure Chemical Corporation, 189-02025) medium containing 10% fetal bovine serum (FBS: SIGMA Life Science, 172012-500ML), and penicillin and streptomycin (FUJIFILM Wako Pure Chemical Corporation, 168-23191) in a 5% CO2 incubator (37° C.). UM-UC-3 cells were maintained in an E-MEM (FUJIFILM Wako Pure Chemical Corporation, 051-07615) medium containing 10% FBS, 1 mM Sodium Pyruvate (FUJIFILM Wako Pure Chemical Corporation, 190-14881), and penicillin and streptomycin in a 5% CO2 incubator (37° C.). To each well of a 96 well plate (Coming, 3904), 90 μL of each cell suspension adjusted to a concentration of 5.55×10^3 cells/mL (RT4 or UM-UC-3) or 3.33×10^4 cells/mL (RT112/84) with the culture medium was added, and the cells were incubated overnight in a 5% CO2 incubator (37° C.). On the next day, 10 μL of Compound (1) in three-fold dilution series suspended in the culture medium was added to each well, and the resultant was incubated for 3 days in a 5% CO2incubator (37° C.). Then, cell viability was determined by CellTiter-Glo® 2.0 Assay (Promega Corporation, G9243) with ARVO-X4 Multimode Plate Reader (Perkin-Elmer, Wellesley, MA). […]

[3] = system: FaDu subcutaneous xenograft; experiment: FaDu subcutaneous xenograft in combination with cetuximab, single dose (FIG. 16); format: in vivo, athymic mice; conditions: single dose Day 1
Experimental: A human squamous cell carcinoma of the head and neck (SCCHN) cell line FaDu, which had been cultured in an RPMI-1640 medium containing 10% FBS, and penicillin-streptomycin, was adjusted to a concentration of 5×10^7 cells/mL with Hanks' Balanced Salt Solution to prepare a cell suspension. The cell suspension was inoculated in a volume of 100 μL into a subcutaneous part of a right flank of athymic mice (CAnN.Cg-Foxnlnu/CrlCrlj, female, 7 weeks old, Charles River Japan Inc.). Ten days after cell inoculation (Day 1), the length and the width of a tumor in each mouse were measured by using an electronic digital caliper (Mitutoyo Corporation), so as to calculate the volume of the tumor in accordance with the following calculation formula: […]
On the basis of TV, the mice were randomly grouped (Day 1). Each group was consisted in six mice. Compound (1) was dissolved in DMSO and a solution was stored in the freezer before use.

[4] = system: human bladder carcinoma cell line RT112/84; experiment: Bladder carcinoma cell line growth inhibition assay, RT112/84; format: cell-based; conditions: RT112/84, 72 h, 3 days incubation, CellTiter-Glo 2.0
Experimental: as §1

[5] = system: α-SMA-positive CAFs in FaDu tumor; experiment: Effect on α-SMA-positive CAFs in the FaDu subcutaneous model (FIG. 14); format: in vivo, nude mice
Experimental: A human squamous cell carcinoma of the head and neck (SCCHN) cell line FaDu, which had been cultured in an RPMI-1640 medium containing 10% FBS, and penicillin-streptomycin (culture medium), was adjusted to a concentration of 5×10^7 cells/mL with culture medium to prepare a cell suspension. The cell suspension was inoculated in a volume of 100 μL into a subcutaneous part of a right flank of nude mice, 6 weeks of ages (CAnN.Cg-Foxnlnu/CrlCrlj, female, Charles River Laboratories Japan, Inc.). Ten days after cell inoculation, the mice were grouped such that averages of the tumor volumes were substantially equal among the groups. The experiment was conducted on groups each consisting of 5 mice. Each test compound was dissolved in DMSO and a solution was stored in the freezer before use. Immediately before the administration, the stock solution was diluted with saline. The test compound in saline was intravenously administered at 20 μg/kg, 60 μg/kg, or 180 μg/kg. […] The area of α-SMA-positive region in the whole tumor was quantified by counting the α-SMA-positive objects using inform 2 software (PerkinElmer Inc.) Area of the tumor region was measured by assessing the hematoxylin-staining area using inform 2 software (PerkinElmer Inc.). […] A suppression rate of the α-SMA- positive area of the test compound-dosing group was calculated with the below formula: […]

C=C1C[C@@H]2CC[C@@]34C[C@H]5O[C@H]6[C@@H](O3)[C@H]3O[C@H](CC[C@@H]3O[C@H]6C5O4)CC(=O)O[C@@H]3[C@@H](C)[C@@H]4O[C@@H]5C[C@]6(C[C@@H]7O[C@]8(C[C@H](C)[C@@H]9O[C@H](CN)[C@H](O)C[C@@H]9O8)C[C@H](C)[C@@H]7O6)O[C@@H]5C[C@@H]4O[C@H]3C[C@H]3O[C@@H](CC[C@@H]1O2)C[C@@H](C)C3=C (stereo in doubt) [Compound (1)]
Inhibition of tumor growth on day 15 (%) ([1]; 0.09 mg/kg i.v. days 3 and 11 + anti-mPD-1 antibody 10 mg/kg): 62% | Inhibition of tumor growth on day 15 (%) ([1]; single agent: anti-mPD-1 antibody 10 mg/kg or Compound (1) 0.09 mg/kg): 30% | IC50 [2]: 0.11 nM | antitumor efficacy with CTX ([3]; 20 μg/kg + cetuximab 10 mg/kg): tended to be stronger than that of CTX monotherapy | antitumor efficacy with CTX ([3]; 180 μg/kg and 60 μg/kg + cetuximab 10 mg/kg): stronger than that of CTX monotherapy with tumor regression | IC50 [4]: 0.0497 nM | α-SMA positive area ([5]; single i.v. dose of 180 μg/kg, Day 6): significantly reduced the α-SMA positive area | α-SMA positive area ([5]; single i.v. dose of 60 and 180 μg/kg, Day 3): significantly reduced the α-SMA positive area
